In PMC6218115, “In Vitro Potency and Preclinical Pharmacokinetic Comparison of All-D-Enantiomeric Peptides Developed for the Treatment of Alzheimer’s Disease” (Journal of Alzheimer's Disease, 2018):
Non-standard residues stand in square brackets, D forms with d. Residues, ends and D or L forms follow the SMILES beside them.

Experiments:
[1] = Pharmacokinetic concentration-time profiles and parameters after i.v. and p.o. administration; assay type: in vivo, C57Bl/6N mice; conditions: mice; for peptide concentration detected in the blood: 4 h after single oral administration of 10 mg/kg; for Cmax, brain / Cmax, plasma: 3H-label LSC; for Cmax, plasma: 3 mice/time point; for AUC %ID,0 - 1440, plasma: non-compartmental analysis; for F (AUC %ID), oral bioavailability: p.o. 10 mg/kg (ANK6, tANK6) or 15 mg/kg (cANK6r) versus i.v. 3.3 mg/kg, plasma AUC %ID; for brain/plasma ratio: 24 h after administration
Description: The pharmacokinetic profiles were investigated in 180 male C57Bl/6N mice aged 13-14 weeks, weighing about 27.4 g in average. Mice were ordered at Charles River (Germany) and housed at least one week under standard housing conditions (12/12 h light-dark cycle, approximately 22°C room temperature and 54% humidity; water and food available ad libitum) in the animal facility of the Forschungszentrum Jülich GmbH before the experiments were carried out. All animal experiments were approved by the Animal Protection Committee of the local government according to the German Protection of Animals Act (LANUV, North-Rhine-Westphalia, Germany, Az.84-02.04.2017.A029).
To determine the concentration-time profiles of ANK6, tANK6, and cANK6r in murine brain, plasma, liver, kidney, and cerebrospinal fluid (CSF) after i.v. and p.o. administration, mixed solutions of non-labelled and ^3H-labelled peptides were prepared. The administered solutions contained 1 mg/mL (i.v.) or 3 mg/mL (p.o.) of the respective D-peptide including small amounts of ^3H-labelled peptides (0.54μg/mL ^3H-ANK6, 1.79μg/mL ^3H-tANK6, or 0.98μg/mL ^3H-cANK6r). Doses were administered by body weight: i.v. 3.3 mg/kg, ANK6 & tANK6 p.o. 10 mg/kg, cANK6r p.o. 15 mg/kg. Three male C57Bl/6N mice aged 13-14 weeks were investigated per time point whereby individual outliers were excluded from further evaluation. Organs were harvested as follows: i.v. 5, 10, 30, 60, 120, 240, 360, 1080, 1440 min; p.o.: 10, 20, 30, 60, 120, 240, 360, 1080, 1440 min.
Animals whose CSF was not extracted were anesthetized with isoflurane (cp-pharma, Germany) inhalation approximately 2 min before each organ harvesting time point. Afterwards, blood was taken by cardiac puncture and the heparinized blood was centrifuged (3000 g, 5 min, 4°C) to get plasma. The plasma in the supernatant was separated and 1:1 diluted with PBS. The right brain hemisphere, 200 mg of the big liver lobe, and the right kidney were removed, weighed, and homogenized in 500μL PBS (Precellys Ceramic Kit 1.4 mm, Precellys 24, Bertin technologies SAS, France). 100μL of the diluted plasma, the homogenized brain, liver, or kidney (in triplicates), or 1–5μL (exactly determined) of the extracted CSF (extraction procedure see below, single determination) were mixed with 10 mL scintillation cocktail (Ultima Gold XR, PerkinElmer, USA). The mixture was incubated overnight (100 rpm, room temperature).
Animals whose CSF was extracted (organ harvesting time points: 60 min, 240 min, 1440 min) were i.p. anesthetized with ketamine/medetomidine approximately 20 min before each sampling time point. When the mouse was in deep narcosis, the cisterna magna was laid free and punctuated with a small capillary to extract about 5μL of CSF as described before. Afterwards, cardiac puncture, organ extractions, and sample preparations were performed as described above.
Quantification of the amount of ^3H-labelled D-peptides was performed with a LSC and the results (dpm/sample) were converted into mg/mL or % injected dose (% ID)/mL for plasma and for CSF, or in mg/g or % ID/g for brain, liver, and kidney as described before. Total peptide concentrations in the samples were back-calculated from the measured ^3H-labelled peptides’ radioactivity as described before [[20, 25, 26, 29]].
The determined peptide concentrations were plotted over time to allow for comparison of all peptides’ uptake into brain, plasma, liver, kidney, and CSF. Concentrations at 0 min were set to 0 % ID/mL or 0 % ID/g except for plasma concentrations after i.v. administration. There, concentrations were linearly back-extrapolated based on the first two measured time points (5 min, 10 min).
To calculate the pharmacokinetic parameters of ANK6, tANK6, and cANK6r for plasma and brain, concentration-time profiles were analyzed. […]

Aβ1-42 oligomers = target: T1, Aβ1-42 oligomers (Homo sapiens, UniProt P05067); assay: Quantitative determination of interference with Aβ aggregate size distribution (QIAD); assay type: biochemical; conditions: for Aβ concentrations in fractions 1 and 2 (Aβ monomers): 80 μM Aβ1-42, 20 μM peptide; for Aβ oligomer concentrations in fractions 4 to 6 versus Aβ1-42 alone: 80 μM Aβ1-42 pre-incubated 2.5 h, 20 μM peptide, 40 min, density gradient centrifugation, RP-HPLC UV 214 nm, p≤0.001
T1 construct: Lyophilized Aβ1 - 42 was dissolved in the respective peptide solution; purchased Isoloid GmbH (recombinant) or Bachem AG (synthetic)
T1 sequence (P05067 672-713 limits assumed): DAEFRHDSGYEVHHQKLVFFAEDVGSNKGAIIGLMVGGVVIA
Description: As soluble Aβ oligomers are currently expected to be the most neurotoxic Aβ species causing AD, the Aβ1 - 42 oligomer elimination potency of ANK6, tANK6, and cANK6r was investigated by the quantitative determination of interference with Aβ aggregate size distribution (QIAD) similar as described before. In short, lyophilized Aβ1 - 42 was dissolved in sodium phosphate buffer to a final concentration of 80μM and incubated for 2.5 h (21°C, 600 rpm) to achieve an Aβ aggregate distribution including monomers, oligomers, and higher molecular aggregates. Then, sodium phosphate buffer (control), 20μM ANK6, 20μM tANK6, or 20μM cANK6r were added and incubated for further 40 min (21°C, 600 rpm). Afterwards, the samples were loaded on top of a density gradient (5 to 50% (w/v) iodixanol, OptiPrep, Axis-Shield, Norway) and ultra-centrifuged for 3 h (4°C, 259.000× g, Optima TL-100, Beckman Coulter, USA). In the following, 14 fractions (140μL each) were taken from top to bottom, whereby the top fractions (1-2) contained Aβ monomers, the middle fractions (4–6) contained the Aβ oligomers of special interest, and the bottom fractions (11–14) contained high molecular weight co-precipitates. The left-over was diluted in 60μL 6 M guanidine hydrochloride (fraction 15). Finally, the Aβ1 - 42 concentrations in all fractions were determined via analytical RP-HPLC (reversed phase-high performance liquid chromatography) and UV absorbance detection at 214 nm.

[2] = i.v. 3.3 mg/kg, back-extrapolated to 0 min
[3] = p.o. 10 mg/kg (ANK6, tANK6) or 15 mg/kg (cANK6r)

SMILES: CC[C@@H](C)[C@@H](NC(=O)[C@@H](CCCNC(=N)N)NC(=O)[C@@H](CCCCN)NC(=O)[C@H](N)CCCNC(=N)N)C(=O)N[C@H](CCCNC(=N)N)C(=O)N[C@H](CC(C)C)C(=O)N[C@@H](C(=O)N[C@@H](C(=O)N[C@H](CCCCN)C(=O)N[C@H](CCCCN)C(=O)N[C@H](CCCCN)C(=O)N[C@H](CCCNC(=N)N)C(N)=O)[C@H](C)O)C(C)C [ANK6] (H-[dR][dK][dR][dI][dR][dL][dV][dT][dK][dK][dK][dR]-NH2; N-terminus assumed)
- peptide concentration detected in the blood [1]: 0.01 µM
- CSF levels ([1]; about 60 min after both types of administration (i.v., p.o.)): Extraordinary high CSF levels
- AUC %ID,0 - 1440, brain ([1]; i.v. 3.3 mg/kg): 35.8 min*% ID/g
- CL, terminal plasma clearance ([1]; i.v. 3.3 mg/kg): 32.0 mL/min/kg
- MRT, plasma ([1]; i.v. 3.3 mg/kg): 3 h
- t1/2, terminal half-life, plasma ([1]; i.v. 3.3 mg/kg): 15 h
- tmax, brain ([1]; i.v. 3.3 mg/kg): 5 min
- tmax, plasma ([1]; i.v. 3.3 mg/kg): 0 min
- λz, terminal elimination rate constant, plasma ([1]; i.v. 3.3 mg/kg): 0.00077 min⁻¹
- Cmax, brain ([1]; i.v. 3.3 mg/kg): 0.07 % ID/g
- Cmax, plasma [1, 2]: 3.17 % ID/mL
- AUC %ID,0 - 1440, plasma ([1]; i.v. 3.3 mg/kg): 91.7 min*% ID/mL
- AUC %ID,0 - 1440, brain [1, 3]: 11.0 min*% ID/g
- CL, terminal plasma clearance [1, 3]: 174.5 mL/min/kg
- MRT, plasma [1, 3]: 10 h
- t1/2, terminal half-life, plasma [1, 3]: 22 h
- tmax, brain [1, 3]: 60 min
- tmax, plasma [1, 3]: 120 min
- λz, terminal elimination rate constant, plasma [1, 3]: 0.00054 min⁻¹
- F (AUC %ID), oral bioavailability [1]: 11.8%
- Cmax, brain [1, 3]: 0.01 % ID/g
- Cmax, plasma [1, 3]: 0.02 % ID/mL
- AUC %ID,0 - 1440, plasma [1, 3]: 10.8 min*% ID/mL
- Aβ concentrations in fractions 1 and 2 (Aβ monomers) (Aβ1-42 oligomers): reduced the Aβ monomer concentrations much stronger
- Aβ oligomer concentrations in fractions 4 to 6 versus Aβ1-42 alone (Aβ1-42 oligomers): significantly lowered

SMILES: CC[C@@H](C)[C@H]1NC(=O)[C@@H](CCCNC(=N)N)NC(=O)[C@@H](CCCCN)NC(=O)[C@@H](CCCNC(=N)N)NC(=O)[C@@H](CCCNC(=N)N)NC(=O)[C@@H](CCCNC(=N)N)NC(=O)[C@@H](CCCCN)NC(=O)[C@@H](CCCCN)NC(=O)[C@@H](CCCCN)NC(=O)[C@@H]([C@H](C)O)NC(=O)[C@@H](C(C)C)NC(=O)[C@@H](CC(C)C)NC(=O)[C@@H](CCCNC(=N)N)NC1=O [cANK6r] (cyclo([dR][dK][dR][dI][dR][dL][dV][dT][dK][dK][dK][dR][dR]))
- brain/plasma ratio ([1]; p.o.): 1.17
- AUC %ID,0 - 1440, brain ([1]; i.v. 3.3 mg/kg): 85.6 min*% ID/g
- CL, terminal plasma clearance ([1]; i.v. 3.3 mg/kg): 18.4 mL/min/kg
- MRT, plasma ([1]; i.v. 3.3 mg/kg): 2 h
- t1/2, terminal half-life, plasma ([1]; i.v. 3.3 mg/kg): 18 h
- tmax, brain ([1]; i.v. 3.3 mg/kg): 5 min
- tmax, plasma ([1]; i.v. 3.3 mg/kg): 0 min
- λz, terminal elimination rate constant, plasma ([1]; i.v. 3.3 mg/kg): 0.00064 min⁻¹
- Cmax, brain ([1]; i.v. 3.3 mg/kg): 0.12 % ID/g
- Cmax, plasma [1, 2]: 3.29 % ID/mL
- AUC %ID,0 - 1440, plasma ([1]; i.v. 3.3 mg/kg): 181.0 min*% ID/mL
- AUC %ID,0 - 1440, brain [1, 3]: 19.1 min*% ID/g
- CL, terminal plasma clearance [1, 3]: 135.5 mL/min/kg
- MRT, plasma [1, 3]: 9 h
- t1/2, terminal half-life, plasma [1, 3]: 30 h
- tmax, brain [1, 3]: 360 min
- tmax, plasma [1, 3]: 60 min
- λz, terminal elimination rate constant, plasma [1, 3]: 0.00039 min⁻¹
- F (AUC %ID), oral bioavailability [1]: 9.9%
- Cmax, brain [1, 3]: 0.02 % ID/g
- Cmax, plasma [1, 3]: 0.05 % ID/mL
- AUC %ID,0 - 1440, plasma [1, 3]: 17.9 min*% ID/mL
- Aβ concentrations in fractions 1 and 2 (Aβ monomers) (Aβ1-42 oligomers): only slightly lowered
- Aβ oligomer concentrations in fractions 4 to 6 versus Aβ1-42 alone (Aβ1-42 oligomers): significantly lowered

SMILES: CC[C@@H](C)[C@@H](NC(=O)[C@@H](CCCNC(=N)N)NC(=O)[C@@H](CCCCN)NC(=O)[C@H](N)CCCNC(=N)N)C(=O)N[C@H](CCCNC(=N)N)C(=O)N[C@H](CC(C)C)C(=O)N[C@@H](C(=O)N[C@@H](C(=O)N[C@H](CCCCN)C(=O)N[C@H](CCCCN)C(=O)N[C@H](CCCCN)C(=O)N[C@H](CCCNC(=N)N)C(=O)N[C@H](CCCNC(=N)N)C(=O)N[C@H](CCCCN)C(=O)N[C@H](CCCNC(=N)N)C(=O)N[C@@H](C(=O)N[C@H](CCCNC(=N)N)C(=O)N[C@H](CC(C)C)C(=O)N[C@@H](C(=O)N[C@@H](C(=O)N[C@H](CCCCN)C(=O)N[C@H](CCCCN)C(=O)N[C@H](CCCCN)C(=O)N[C@H](CCCNC(=N)N)C(N)=O)[C@H](C)O)C(C)C)[C@H](C)CC)[C@H](C)O)C(C)C [tANK6] (H-[dR][dK][dR][dI][dR][dL][dV][dT][dK][dK][dK][dR][dR][dK][dR][dI][dR][dL][dV][dT][dK][dK][dK][dR]-NH2; N-terminus assumed)
- peptide concentration detected in the blood [1]: 0.01 µM
- brain/plasma ratio ([1]; i.v.): 6.89
- AUC %ID,0 - 1440, brain ([1]; i.v. 3.3 mg/kg): 56.6 min*% ID/g
- CL, terminal plasma clearance ([1]; i.v. 3.3 mg/kg): 88.9 mL/min/kg
- MRT, plasma ([1]; i.v. 3.3 mg/kg): 7 h
- t1/2, terminal half-life, plasma ([1]; i.v. 3.3 mg/kg): 18 h
- tmax, brain ([1]; i.v. 3.3 mg/kg): 30 min
- tmax, plasma ([1]; i.v. 3.3 mg/kg): 0 min
- λz, terminal elimination rate constant, plasma ([1]; i.v. 3.3 mg/kg): 0.00063 min⁻¹
- Cmax, brain ([1]; i.v. 3.3 mg/kg): 0.06 % ID/g
- Cmax, plasma [1, 2]: 0.40 % ID/mL
- AUC %ID,0 - 1440, plasma ([1]; i.v. 3.3 mg/kg): 26.1 min*% ID/mL
- AUC %ID,0 - 1440, brain [1, 3]: 22.5 min*% ID/g
- CL, terminal plasma clearance [1, 3]: 113.0 mL/min/kg
- MRT, plasma [1, 3]: 11 h
- t1/2, terminal half-life, plasma [1, 3]: 31 h
- tmax, brain [1, 3]: 1080 min
- tmax, plasma [1, 3]: 240 min
- λz, terminal elimination rate constant, plasma [1, 3]: 0.00038 min⁻¹
- F (AUC %ID), oral bioavailability [1]: 49.4%
- Cmax, brain [1, 3]: 0.02 % ID/g
- Cmax, plasma [1, 3]: 0.02 % ID/mL
- AUC %ID,0 - 1440, plasma [1, 3]: 12.9 min*% ID/mL
- Aβ concentrations in fractions 1 and 2 (Aβ monomers) (Aβ1-42 oligomers): reduced the Aβ monomer concentrations much stronger
- Aβ oligomer concentrations in fractions 4 to 6 versus Aβ1-42 alone (Aβ1-42 oligomers): significantly lowered
